The record followed here is patent US10947216B2, “Amide compounds and method for making and using” (Rigel Pharmaceuticals, Inc., priority 2016, dated 2021).

pEC50: −log10 of the molar value. Where a name gives a salt, the structure may show the parent alone.

The subject of the first experiment is IL-23p19. As to the kind of experiment: LPS Induced IL23p19 in THP-1 Cells (with IFNγ Primed) Assay. Format: cell-based, human. The note with it: Homo sapiens, THP-1, THP-1 cells, IFNγ (50 ng/mL) primed, 1 hour compound pre-incubation, LPS 1 ug/mL 18 hours, 10 pt; read-out: IL23-p19 ELISA, THP1-IFNy, LPS, 10 pt EC50. On the procedure: LPS Induced IL23p19 in THP-1 Cells (with IFNγ Primed) Assay
Method THP-1 Cells Stimulation:
On day 1, 50K/well THP-1 cells were seeded and primed with IFNγ (50 ng/mL) in 384-well plates for about 18 hours in RPMI media with 10% FBS. […] 50 μL/well 2× compound was added to 50 μL/well THP-1 cells (with IFNγ primed) in duplicate in 384 well tissue culture plates. […] Day 3, after stimulation for 18 hours at 37° C., 5% CO2, the assay plate was centrifuged and 70 μL/well supernatant was harvested. IL-23p19 protein in 70 μL/well of supernatant was measured by sandwich ELISA, and 25 μl/well Cell Titer Glo reagent was added to the remaining cells to measure compound toxicity.
Human IL-23p19 Sandwich ELISA:
Maxisorp immuno ELISA plates were pre-coated with 25 μL/well of anti-IL-23p19 capture antibody (2.5 ug/mL) in PBS overnight at room temperature. After washing with 1×PBST, the plates were blocked using 100 μL/well of 1% BSA in PBS for 2 hours at room temperature. The plates were washed three times with 1×PBST and 70 μL/well supernatant were added. The plates were incubated at room temperature for 2 hours with shaking and washed three times with 1×PBST. 25 μL/well of biotin labeled anti-IL-12(p40/p70) detection antibody (100 ng/mL) in PBS with 1% BSA was added and the plates were incubated at room temperature for 2 hours with shaking. After washing three times with 1×PBST, 25 μL/well of streptavidin-HRP (1:200) in PBS with 1% BSA was added and the plates were incubated at room temperature for 20 minutes with shaking. The plates were washed three times with 1×PBST and 25 μL/well of Super Signal ELISA Pico Chemiluminescent Substrate were added. The plates were read with a luminometer, and the chemiluminescence values were entered into Athena (Rigel) for curve fitting, EC50 calculation, and database storage.
(An ELISA detects its analyte on a solid surface through an enzyme-linked reagent.)
The pEC50 is −log10 of the EC50, conventionally taken in molar units. `COc1ccc(-c2nn(C)cc2NC(=O)c2cccc(-c3cncc(OC(C)C)c3)n2)nc1` [Compound I-70, 5′-isopropoxy-N-(3-(5-methoxypyridin-2-yl)-1-methyl-1H-pyrazol-4-yl)-[2,3′-bipyridine]-6-carboxamide]: the pEC50 was 5.66.
On the same count and under the same terms, under `Cc1cncc(-c2cccc(C(=O)Nc3cn(C)nc3N3CCCC3)n2)c1` [Compound I-75, 5′-methyl-N-(1-methyl-3-(pyrrolidin-1-yl)-1H-pyrazol-4-yl)-[2,3′-bipyridine]-6-carboxamide] stands 4.80; under `Cc1cncc(-c2cccc(C(=O)Nc3cn(CCN4CCOCC4)nc3-c3ccccn3)n2)c1` [Compound I-84, 5′-methyl-N-(1-(2-morpholinoethyl)-3-(pyridin-2-yl)-1H-pyrazol-4-yl)-[2,3′-bipyridine]-6-carboxamide], 6.35.
On the same count and under the same terms, then `CCN(CC)CCn1cc(NC(=O)c2cccc(-c3ccncc3)n2)c(-c2ccccn2)n1` [Compound I-104, N-(1-(2-(diethylamino)ethyl)-3-(pyridin-2-yl)-1H-pyrazol-4-yl)-[2,4′-bipyridine]-6-carboxamide], with 4.13.
Still for that read-out and setting: under `O=C(Nc1c[nH]nc1-c1ccccn1)c1cccc(-c2ccncc2)n1` [Compound I-106, N-(3-(pyridin-2-yl)-1H-pyrazol-4-yl)-[2,4′-bipyridine]-6-carboxamide formate] stands 5.31.
Regarding `COCCn1cc(NC(=O)c2cccc(-c3ccncc3)n2)c(-c2ccccn2)n1` [Compound I-107, N-(1-(2-methoxyethyl)-3-(pyridin-2-yl)-1H-pyrazol-4-yl)-[2,4′-bipyridine]-6-carboxamide formate], the pEC50 was 5.45.
Still for that read-out and setting: under `Cn1cc(NC(=O)c2cncc(-c3cnn(CC4CC4)c3)c2)c(-c2ccccn2)n1` [Compound I-109, 5-(1-(cyclopropylmethyl)-1H-pyrazol-4-yl)-N-(1-methyl-3-(pyridin-2-yl)-1H-pyrazol-4-yl)nicotinamide] stands 4.97.
The same measure, in the same setting: under `Cn1cc(NC(=O)c2nccc(Nc3cn(C)nc3-c3ccccn3)n2)c(-c2ccccn2)n1` [Compound I-118, N-(1-methyl-3-(pyridin-2-yl)-1H-pyrazol-4-yl)-4-((1-methyl-3-(pyridin-2-yl)-1H-pyrazol-4-yl)amino)pyrimidine-2-carboxamide] stands 3.88; under `O=C(Nc1cn(C(CO)CO)nc1-c1ccccn1)c1cccc(-c2cccnc2)n1` [Compound I-125, N-(1-(1,3-dihydroxypropan-2-yl)-3-(pyridin-2-yl)-1H-pyrazol-4-yl)-[2,3′-bipyridine]-6-carboxamide], 5.41; under `Cc1cncc(-c2cccc(C(=O)Nc3cn(C(CO)CO)nc3-c3ccccn3)n2)c1` [Compound I-126, N-(1-(1,3-dihydroxypropan-2-yl)-3-(pyridin-2-yl)-1H-pyrazol-4-yl)-5′-methyl-[2,3′-bipyridine]-6-carboxamide], 5.47.
Still for that read-out and setting: then `O=C(Nc1cn(C(CO)CO)nc1-c1ccccn1)c1cccc(-c2cn[nH]c2)n1` [Compound I-127, N-(1-(1,3-dihydroxypropan-2-yl)-3-(pyridin-2-yl)-1H-pyrazol-4-yl)-6-(1H-pyrazol-4-yl)picolinamide], with 4.74.
On to `Cn1cc(NC(=O)c2nccc(Nc3cc[nH]n3)n2)c(-c2ccccn2)n1` [Compound I-128, 4-((1H-pyrazol-3-yl)amino)-N-(1-methyl-3-(pyridin-2-yl)-1H-pyrazol-4-yl)pyrimidine-2-carboxamide], for which the pEC50 is 4.62.
Still for that read-out and setting: under `Cc1n[nH]cc1Nc1ccnc(C(=O)Nc2cn(C)nc2-c2ccccn2)n1` [Compound I-129, 4-((3-methyl-1H-pyrazol-4-yl)amino)-N-(1-methyl-3-(pyridin-2-yl)-1H-pyrazol-4-yl)pyrimidine-2-carboxamide] stands 4.14; under `O=C(O)c1cncc(-c2cccc(C(=O)Nc3cn(C4COC4)nc3-c3ccccn3)n2)c1` [Compound I-135, 6-((1-(oxetan-3-yl)-3-(pyridin-2-yl)-1H-pyrazol-4-yl)carbamoyl)-[2,3′-bipyridine]-5′-carboxylic acid], 4.38.
In the case of `COCCOCCn1cc(NC(=O)c2cccc(-c3ccncc3)n2)c(-c2ccccn2)n1` [Compound I-140, N-(1-(2-(2-methoxyethoxy)ethyl)-3-(pyridin-2-yl)-1H-pyrazol-4-yl)-[2,4′-bipyridine]-6-carboxamide formate], the pEC50 was 4.96.
The same measure, in the same setting: under `COCCOCCn1cc(NC(=O)c2cccc(-c3ccncc3F)n2)c(-c2ccccn2)n1` [Compound I-144, 3′-fluoro-N-(1-(2-(2-methoxyethoxy)ethyl)-3-(pyridin-2-yl)-1H-pyrazol-4-yl)-[2,4′-bipyridine]-6-carboxamide formate] stands 4.94; under `COCCOCCn1cc(NC(=O)c2cccc(-c3ccncc3C)n2)c(-c2ccccn2)n1` [Compound I-145, N-(1-(2-(2-methoxyethoxy)ethyl)-3-(pyridin-2-yl)-1H-pyrazol-4-yl)-3′-methyl-[2,4′-bipyridine]-6-carboxamide formate], 4.25.
On the same count and under the same terms, under `Cn1cc(NC(=O)c2cccc(-c3ccnc(NCC4CC4)c3)n2)c(-c2ccccn2)n1` [Compound I-159, 2′-((cyclopropylmethyl)amino)-N-(1-methyl-3-(pyridin-2-yl)-1H-pyrazol-4-yl)-[2,4′-bipyridine]-6-carboxamide formate] stands 4.83.
Same read-out and setting: under `Cn1cc(NC(=O)c2cccc(-c3ccncc3)n2)c(-c2ccccn2)n1` [Compound I-160, N-(1-methyl-3-(pyridin-2-yl)-1H-pyrazol-4-yl)-[2,4′-bipyridine]-6-carboxamide 2,2,2-trifluoroacetate] stands 3.82.
For the molecule `O=C(Nc1cn(C2CCOCC2)nc1-c1ccccn1)c1cccc(-c2cn[nH]c2)n1` [Compound I-165, 6-(1H-pyrazol-4-yl)-N-(3-(pyridin-2-yl)-1-(tetrahydro-2H-pyran-4-yl)-1H-pyrazol-4-yl)picolinamide], the pEC50 was 5.81.
`COCCn1cc(NC(=O)c2cccc(-c3cncc(C)c3)n2)c(-c2ccccn2)n1` [Compound I-168, N-(1-(2-methoxyethyl)-3-(pyridin-2-yl)-1H-pyrazol-4-yl)-5′-methyl-[2,3′-bipyridine]-6-carboxamide]: the pEC50 is 6.27.

Staying with this experiment, now noted: THP-1 cells, IFNγ (50 ng/mL) primed, 1 hour compound pre-incubation, LPS 1 ug/mL 18 hours, 10 pt; dihydrochloride; read-out: IL23-p19 ELISA, THP1-IFNy, LPS, 10 pt EC50.
Regarding `Cc1cncc(-c2cccc(C(=O)Nc3cn(C)nc3-c3ccc(N4CCOCC4)cn3)n2)c1` [Compound I-176, 5′-methyl-N-(1-methyl-3-(5-morpholinopyridin-2-yl)-1H-pyrazol-4-yl)-[2,3′-bipyridine]-6-carboxamide dihydrochloride], the pEC50 was 4.55.
